Data: US7632918B2, “Semi-synthetic glycopeptides with antibiotic activity” (Novartis Vaccines and Diagnostics, Inc., priority 2005, dated 2009)
≈ marks a conversion by molar mass, not a printed value.

How the values were obtained:
Assay in all cases: MIC, broth microdilution in Meuller-Hinton broth (NCCLS)
533 S. epidermidis = assay type: cell-based, Staphylococus epidermidis; details: clinical isolate
Method: (§1) Antibacterial activity in vitro was investigated by broth microdilution method in Meuller-Hinton broth as recommended by NCCLS. All strains tested were clinical isolates either sensitive or resistant to natural glycopeptides. Results are reported in the tables as MIC (minimal inhibitory concentration) in μg/ml.
(§2) The glycopeptides were tested against a variety of strains, indicated below, including Staphylococus epidermidis, Staphylococus haemolyticus, glycopeptides-intermediate Staphylococus aureus (GISA), glocopeptide-sensitive Enterococcus faecalis (GSE), and glocopeptide-resistant Enterococcus faecalis (GRE). Results are shown in the table as minimum inhibitory concentration (MIC) in units of μg/ml: […]

602 S. haemolyticus = assay type: cell-based, Staphylococus haemolyticus; details: clinical isolate
Method: as §1, §2

3797 S. aureus (GISA) = assay type: cell-based, Staphylococus aureus; details: glycopeptides-intermediate clinical isolate
Method: as §1, §2

3798 S. aureus (GISA) = assay type: cell-based, Staphylococus aureus; details: glycopeptides-intermediate clinical isolate
Method: as §1, §2

568 E. faecium (GSE) = assay type: cell-based; details: glycopeptide-sensitive clinical isolate
Method: as §1, §2

569 E. faecium (GRE) = assay type: cell-based; details: glycopeptide-resistant clinical isolate
Method: as §1, §2

559 E. faecalis (GSE) = assay type: cell-based, Enterococcus faecalis; details: glycopeptide-sensitive clinical isolate
Method: as §1, §2

560 E. faecalis (GRE) = assay type: cell-based, Enterococcus faecalis; details: glycopeptide-resistant clinical isolate
Method: as §1, §2

| Compound | MIC 533 S. epidermidis (533 S. epidermidis) [µg/mL] | MIC 602 S. haemolyticus (602 S. haemolyticus) [µg/mL] | MIC 3797 S. aureus (GISA) (3797 S. aureus (GISA)) [µg/mL] | MIC 3798 S. aureus (GISA) (3798 S. aureus (GISA)) [µg/mL] | MIC 568 E. faecium (GSE) (568 E. faecium (GSE)) [µg/mL] | MIC 569 E. faecium (GRE) (569 E. faecium (GRE)) [µg/mL] | MIC 559 E. faecalis (GSE) (559 E. faecalis (GSE)) [µg/mL] | MIC 560 E. faecalis (GRE) (560 E. faecalis (GRE)) [µg/mL] |
| --- | --- | --- | --- | --- | --- | --- | --- | --- |
| CNC(CC(C)C)C(=O)NC1C(=O)NC(CC(N)=O)C(=O)NC2C(=O)NC3C(=O)NC(C(=O)NC(C(=O)O)c4cc(O)cc(O)c4-c4cc3ccc4O)C(OC3CC(C)(N)C(O)C(C)O3)c3ccc(cc3)Oc3cc2cc(c3OC2OC(CO)C(O)C(O)C2OC2CC(C)(NC(=O)CNCc3ccc(C(F)(F)F)cc3)C(O)C(C)O2)Oc2ccc(cc2Cl)C1O (stereo not shown) [Compound 294] | 1 (≈ 0.564 µM) | 1 (≈ 0.564 µM) | 4 (≈ 2.26 µM) | 4 (≈ 2.26 µM) | 0.5 (≈ 0.282 µM) | >64 | 0.5 (≈ 0.282 µM) | >64 |
| CNC(CC(C)C)C(=O)NC1C(=O)NC(CC(N)=O)C(=O)NC2C(=O)NC3C(=O)NC(C(=O)NC(C(=O)O)c4cc(O)cc(O)c4-c4cc3ccc4O)C(O)c3ccc(c(Cl)c3)Oc3cc2cc(c3OC2OC(CO)C(O)C(O)C2OC2CC(C)(NC(=O)CNCc3ccc(C(F)(F)F)cc3)C(O)C(C)O2)Oc2ccc(cc2Cl)C1O (stereo not shown) [Compound 290] | 4 (≈ 2.4 µM) | 4 (≈ 2.4 µM) | 4 (≈ 2.4 µM) | 4 (≈ 2.4 µM) | 4 (≈ 2.4 µM) | >64 | 2 (≈ 1.2 µM) | >64 |
| CCCCCCCCOc1ccc(CNCC(=O)NC2(C)CC(OC3C(Oc4c5cc6cc4Oc4ccc(cc4Cl)C(O)C(NC(=O)C(CC(C)C)NC)C(=O)NC(CC(N)=O)C(=O)NC6C(=O)NC4C(=O)NC(C(=O)NC(C(=O)O)c6cc(O)cc(O)c6-c6cc4ccc6O)C(OC4CC(C)(N)C(O)C(C)O4)c4ccc(cc4)O5)OC(CO)C(O)C3O)OC(C)C2O)cc1 (stereo not shown) [Compound 214] | 1 (≈ 0.545 µM) | 1 (≈ 0.545 µM) | 4 (≈ 2.18 µM) | 4 (≈ 2.18 µM) | 0.5 (≈ 0.273 µM) | 8 (≈ 4.36 µM) | 1 (≈ 0.545 µM) | 8 (≈ 4.36 µM) |
| CNC(CC(C)C)C(=O)NC1C(=O)NC(CC(N)=O)C(=O)NC2C(=O)NC3C(=O)NC(C(=O)NC(C(=O)O)c4cc(O)cc(O)c4-c4cc3ccc4O)C(OC3CC(C)(N)C(O)C(C)O3)c3ccc(cc3)Oc3cc2cc(c3OC2OC(CO)C(O)C(O)C2OC2CC(C)(NC(=O)CNC(=O)OCC3c4ccccc4-c4ccccc43)C(O)C(C)O2)Oc2ccc(cc2Cl)C1O (stereo not shown) [Compound 221] | – | – | – | – | 0.5 (≈ 0.272 µM) | 64 (≈ 34.8 µM) | 0.5 (≈ 0.272 µM) | >64 |
| CNC(CC(C)C)C(=O)NC1C(=O)NC(CC(N)=O)C(=O)NC2C(=O)NC3C(=O)NC(C(=O)NC(C(=O)O)c4cc(O)cc(O)c4-c4cc3ccc4O)C(OC3CC(C)(N)C(O)C(C)O3)c3ccc(cc3)Oc3cc2cc(c3OC2OC(CO)C(O)C(O)C2OC2CC(C)(NC(=O)CNC(=O)OC34CC5CC(CC(C5)C3)C4)C(O)C(C)O2)Oc2ccc(cc2Cl)C1O (stereo not shown) [Compound 222] | – | – | – | – | 1 (≈ 0.558 µM) | >64 | 2 (≈ 1.12 µM) | >64 |
| CCCCCCCCOc1ccc(CNCC(=O)NC2(C)CC(OC3C(Oc4c5cc6cc4Oc4ccc(cc4Cl)C(O)C(NC(=O)C(CC(C)C)NC)C(=O)NC(CC(N)=O)C(=O)NC6C(=O)NC4C(=O)NC(C(=O)NC(C(=O)NC(C)C67CC8CC(CC(C8)C6)C7)c6cc(O)cc(O)c6-c6cc4ccc6O)C(OC4CC(C)(N)C(O)C(C)O4)c4ccc(cc4)O5)OC(CO)C(O)C3O)OC(C)C2O)cc1 (stereo not shown) [Compound 266] | 16 (≈ 8.02 µM) | 32 (≈ 16 µM) | >32 | >32 | – | – | – | – |
| CCCCCCCCOc1ccc(CNCC(=O)NC2(C)CC(OC3C(Oc4c5cc6cc4Oc4ccc(cc4Cl)C(O)C(NC(=O)C(CC(C)C)NC)C(=O)NC(CC(N)=O)C(=O)NC6C(=O)NC4C(=O)NC(C(=O)NC(C(=O)NC6C7CC8CC(C7)CC6C8)c6cc(O)cc(O)c6-c6cc4ccc6O)C(OC4CC(C)(N)C(O)C(C)O4)c4ccc(cc4)O5)OC(CO)C(O)C3O)OC(C)C2O)cc1 (stereo not shown) [Compound 265] | 32 (≈ 16.3 µM) | 32 (≈ 16.3 µM) | >32 | >32 | – | – | – | – |
